The source of these data is PubChem BioAssay (NCI).

Holding throughout (experiment): growth of human tumour cells (NCI), 48 h
For assay [1], the system named is K-562 leukemia.
The subject of assay [2] is HS 578T breast.
Assay [3] relates to IGROV1 ovarian.
Assay [4] deals with MDA-N.
Assay [5] concerns KM12 colon.
The subject of assay [6] is MDA-MB-435.
Assay [7] relates to MCF7 breast.
The test system of assay [8] is OVCAR-8 ovarian.
Assay [9] concerns NCI-H460 lung.
Assay [10] relates to SF-539 CNS.
Assay [11] concerns A549 NSCLC.
The subject of assay [12] is HCT-116 colon.
Assay [13] concerns CAKI-1 renal.

The structures appear in SMILES notation.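 Cells were grown in 96-well plates and exposed to each compound for 48 hours at five concentrations; endpoints were interpolated linearly between bracketing concentrations, or set to the highest concentration if not reached. Definition used: TGI = concentration required for complete inhibition of growth.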 Where only a bound is given, the exact number is not on record here.

On to `CC(C(=O)n1ccnc1)N1c2ccccc2Sc2ccccc21` (stereo unspecified), for which the TGI in assay [1], in [2], in [3], in [4], in [5] and in assay [6] was greater than 100 µM each time. Further, the TGI in assay [7], in assay [8], in assay [9], in assay [10], in [11] and in [12] was greater than 100 µM throughout.
As for `CC(=O)Nc1cc2nc3n(c2cc1C)CCC3OC(C)=O` (stereo unspecified), the TGI in assay [1], in assay [2], in [3], in assay [4], in assay [5] and in [6] was greater than 100 µM each time. Besides, the TGI in assay [7], in assay [8], in assay [9], in assay [13], in [10] and in [11] was greater than 100 µM in each case. In addition, in assay [12], the TGI was greater than 100 µM.
As for `COc1cc(C2OC[C@@H]3C(=O)OC[C@H]23)cc(O)c1OC` (stereo partly specified), the TGI in assay [1], in assay [2], in [3], in assay [4], in assay [5] and in [6] was greater than 100 µM each time. Further, the TGI in assay [7], in assay [8], in assay [9], in assay [13], in assay [10] and in [11] was greater than 100 µM each time. In [12], this molecule yielded a TGI greater than 100 µM.
As for `CN1CC2=C(NC(=S)NC2c2ccccc2Cl)/C(=C/c2ccccc2Cl)C1` (stereo unspecified), the TGI in assay [1], in assay [2], in assay [3], in assay [4], in assay [5] and in assay [6] was greater than 100 µM in each case. For the same molecule, the TGI in assay [7], in assay [8], in assay [9], in [13], in assay [10] and in assay [11] was greater than 100 µM throughout. Moreover, in assay [12], the TGI was greater than 100 µM.
As to `CC(=O)Oc1ccc2cc(-c3ccc(OC(C)=O)c(OC(C)=O)c3)c(=O)oc2c1`, the TGI was greater than 100 µM in [1]; greater than 100 µM in assay [2]; greater than 100 µM in [4]; 61.3 µM in assay [5]; greater than 100 µM in assay [6]; greater than 100 µM in assay [7]. Also, the TGI in assay [8], in [9], in [10], in assay [11] and in assay [12] was greater than 100 µM throughout.
Consider `Cc1ccc(C(=O)N/N=C(\N=Nc2ccccc2Cl)c2ccc(N(C)C)cc2)cc1`, for which the TGI in assay [1] was greater than 100 µM; in [2] it was greater than 100 µM; in [3], greater than 100 µM; in [4], 34.5 µM; in assay [5], greater than 100 µM; in assay [6], 29.6 µM. Moreover, the TGI is greater than 100 µM in assay [7]; greater than 100 µM in assay [8]; greater than 100 µM in assay [9]; 75.4 µM in assay [13]; greater than 100 µM in assay [10]; greater than 100 µM in assay [11]. Besides, in assay [12], the TGI was greater than 100 µM.
Consider `C=CCCCC1(C)CCNC1=S` (stereo unspecified), for which the TGI in assay [1], in assay [2], in assay [3], in assay [4], in [6] and in assay [7] was greater than 100 µM each time. Moreover, the TGI in assay [8], in assay [9], in assay [13], in assay [10], in assay [11] and in assay [12] was greater than 100 µM in each case.
Take `Cc1cn(C2CCN(CC3COC(C)(C)O3)O2)c(=O)[nH]c1=O` (stereo unspecified): the TGI in assay [1], in assay [2], in assay [3], in [4], in assay [5] and in [6] was greater than 100 µM in each case. The TGI in assay [7], in assay [8], in assay [9], in assay [13], in assay [10] and in assay [11] was greater than 100 µM each time. The molecule also had a TGI in assay [12] greater than 100 µM.
Take `O=[N+]([O-])C(/C=C(\Cl)[N+](=O)[O-])=C(N1CCCCC1)N1CCCCC1`: the TGI is 66.9 µM in assay [1]; greater than 100 µM in assay [2]; 61.1 µM in assay [3]; 41 µM in assay [4]; greater than 100 µM in [5]; 30.6 µM in [6]. The TGI in assay [7] is 18.9 µM; in assay [8] it was greater than 100 µM; in assay [9], greater than 100 µM; in [13], greater than 100 µM; in [10], 56.7 µM; in assay [11], 54 µM. In addition, the TGI in assay [12] amounted to 62.4 µM.
Take `COc1cc(CNc2c3ccccc3nc3ccccc23)cc(OC)c1OC`: the TGI in assay [1] worked out at 2 µM; in assay [2], 29.8 µM; in assay [3], 25.2 µM; in assay [4] it was 13 µM; in [5] it was 21.3 µM; in assay [6], 12.9 µM. Further, the TGI in [7] was greater than 32.9 µM; in assay [8], 14 µM; in [9], 8.18 µM; in [13] it was 14.1 µM; in assay [10] it was 15.7 µM; in assay [11] it was 12.7 µM. The molecule further returned a TGI in assay [12] of 11.2 µM.
